Experimental data as given in US12233413B2, “Massively parallel microfluidic cell analyzer for high throughput mechanophenotyping” (priority 2018, dated 2025).
Where two headings read alike, the source gives them in different places.

Assays:
[1] = tested on: MDA-MB-231 (human mammary adenocarcinoma) cells; format: cell-based
Experimental: For each population in our experiments, we used the computed sensor signal amplitude and constriction transit time as measures of the cell size and its stiffness, respectively (see FIGS. 10A-10C).
Because the data on different cell populations were acquired under the same driving pressure and electrical excitation, we could directly compare the characterization results (see FIG. 10D).
For the single frequency device, two different sample of MDA-MB-231 cells were treated with Latrunculin A (Sigma-Aldrich; St. Louis, MO) and formaldehyde (Sigma-Aldrich; St. Louis, MO) and suspended in Phosphate Buffered Saline (PBS). […] Prior to experiments, the cells were trypsinized for two minutes, pelleted, resuspended in PBS and mixed gently to dissociate cell clusters that may have formed. Finally, the suspension was diluted with PBS to a cell concentration of 1.5×10^6 cells/mL. For the LatA exposure, 100 μg of LatA in lyophilized powder form was reconstituted in dimethyl sulfoxide (DMSO), then diluted in PBS to form a 5.9 nM stock solution. The trypsinized and pelleted MDA-MB-231 cells were mixed with 1 mL of 1 nM LatA and incubated at 37° C. for 60 mins. The cells were pelleted once more and resuspended in PBS. […] The trypsinized and pelleted MDA-MB-231 cells were mixed with diluted 4% PFA and incubated at 37° C. for 10 mins. The cells were pelleted once more and resuspended in PBS.
During the above-described experiment, the cell sample was loaded into a sealed 10 mL laboratory tube and pneumatically driven through the device using a software-controlled pressure regulator (MFCSEZ, Fluigent). The driving pressure was 100 mbar for both single-frequency and multi-frequency devices. In the case of the single-frequency device, the electrical networks were excited using a 800 mVpp, 500 kHz sinusoidal signal generated by the lock-in amplifier (HF2LI, Zurich Instruments). For the multi-frequency device, the 500 kHz and 900 kHz sine signals were generated by the lock-in amplifier, whereas the 1300 kHz signal was obtained using a waveform generator (33612A, Keysight), all at 800 mVpp.

[2] = tested on: HeyA8 ovarian cancer cells; format: cell-based
Experimental: Cell transit times were determined in accordance with the approach described above. […] In the testing, Phosphate Buffered Saline (PBS) suspended HeyA8 ovarian cancer cells were driven through the device using a pressure pump controller (Fluigent MFCS-EZ) at 80 mbar. Three suspensions of cells with varying stiffness were prepared. The first sample was exposed to 1 μM Latrunculin A, abbreviated as LatA, (Sigma-Aldrich), an Actin polymerization inhibitor, for 60 mins at 37° C. to reduce the cell stiffness. The second sample was left untreated. […] In operation, the sensor network 620 was driven with an 500 kHz AC signal and the electrical sensor data from the chip was recorded using a lock-in-amplifier (Zurich Instruments HF2LI) and sampled into a computer. The cell size and the transit time were both measured from the sensor signal peak amplitude and the time delay between the code waveforms corresponding to sensor pairs, respectively.

Structure (SMILES) | average constriction transit time of treated cells [1] [ms] | longer transit time of treated cells compared to the untreated cells [2] [%] | less constriction transit time than untreated cells, on average ([1]; MDA-MB-231, 1 nM LatA 60 mins at 37° C., 100 mbar) [%] | average constriction transit time of treated cells ([1]; MDA-MB-231, 100 mbar, 1.5×10^6 cells/mL, LatA 1 nM 60 mins 37° C., fixation with diluted 4% PFA 10 mins 37° C.) [ms] | transit time of the untreated cells longer than that of the LatA treated cells, on average ([2]; HeyA8 cells in PBS, 1 μM Latrunculin A, 60 mins at 37° C., driven at 80 mbar) [%]
C=O [Formaldehyde] | 54.01 | 36 |  |  | 
C/C1=C/C(=O)O[C@@H]2C[C@@H](CC[C@H](C)/C=C\C=C\CC1)O[C@@](O)([C@@H]1CSC(=O)N1)C2 [LatA, Latrunculin A] |  |  | 8.9 | 42.35 | 34
